The first assay relates to murine embryonic fibroblast cells that express a low level of Mre11 (Mre11-impaired; Mre11^ATLD1/ATLD1). Put plainly: Colony formation of Mre11-impaired vs WT murine embryonic fibroblasts exposed to DNA damaging agents. It is filed as cell-based. Particulars: Mre11^ATLD1/ATLD1 vs WT murine embryonic fibroblasts; mean of triplicate samples.
With `COc1cccc2c1C(=O)c1c(O)c3c(c(O)c1C2=O)C[C@@](O)(C(=O)CO)C[C@@H]3O[C@H]1C[C@H](N)[C@H](O)[C@H](C)O1` [Adriamycin, doxorubicin], the “susceptibility (proportion colony formation vs. concentration) of Mre11-impaired cells as compared to WT cells” value is “equivalent response”.

Staying with this assay, now noted: summary statement of the description.
Regarding `COc1cccc2c1C(=O)c1c(O)c3c(c(O)c1C2=O)C[C@@](O)(C(=O)CO)C[C@@H]3O[C@H]1C[C@H](N)[C@H](O)[C@H](C)O1` [Adriamycin, doxorubicin], the “growth and/or survival inhibition of a cell having a reduced level of MRN complex formation and/or functionality” value is given as “no effect”.

The next assay has as its system cancer cells exhibiting reduced MRN complex formation and/or functionality. As to the kind of experiment: Growth and/or survival inhibition of cancer cells with reduced MRN complex by clastogenic agents. In kind it is cell-based.
Conditions: not given
`O=P1(N(CCCl)CCCl)NCCCO1` (stereo not shown) [cyclophosphamide]: the “sensitivity to growth and/or survival inhibition” value is given as “increased sensitivity”.

Still in this assay, the particulars now being: cancer cells with reduced MRN complex formation and/or functionality; no experiment described.
Turning to `CCc1c2c(nc3ccc(OC(=O)N4CCC(N5CCCCC5)CC4)cc13)-c1cc3c(c(=O)n1C2)COC(=O)[C@]3(O)CC` [irinotecan], the “sensitivity to growth and/or survival inhibition” value is given as “increased sensitivity”. Consider `CC(=O)[C@]1(O)Cc2c(O)c3c(c(O)c2[C@@H](O[C@H]2C[C@H](N)[C@H](O)[C@H](C)O2)C1)C(=O)c1ccccc1C3=O` [idarubicin], for which the “sensitivity to growth and/or survival inhibition” value is “do not exhibit increased sensitivity”. Turning to `COc1cccc2c1C(=O)c1c(O)c3c(c(O)c1C2=O)C[C@@](O)(C(=O)CO)C[C@@H]3O[C@H]1C[C@H](N)[C@H](O)[C@H](C)O1` [Adriamycin, doxorubicin], the “sensitivity to growth and/or survival inhibition” value was “do not exhibit increased sensitivity”. The same measure, in the same setting: with `N.N.O=C([O-])C1(C(=O)[O-])CCC1.[Pt+2]` [carboplatin] the entry was “increased sensitivity”; with `N.N.[Cl][Pt][Cl]` [cisplatin], “increased sensitivity”.

Take `CC[C@@]1(O)C(=O)OCc2c1cc1n(c2=O)Cc2cc3ccccc3nc2-1` [campththecin, camptothecin]: the “sensitivity to growth and/or survival inhibition” value was “increased sensitivity”. Turning to `COc1cccc2c1C(=O)c1c(O)c3c(c(O)c1C2=O)C[C@@](O)(C(=O)CO)C[C@@H]3O[C@H]1C[C@H](N)[C@@H](O)[C@H](C)O1` [epirubicin], the “sensitivity to growth and/or survival inhibition” value was “do not exhibit increased sensitivity”.

In the case of `COc1cccc2c1C(=O)c1c(O)c3c(c(O)c1C2=O)C[C@@](O)(C(C)=O)C[C@@H]3O[C@H]1C[C@H](N)[C@H](O)[C@H](C)O1` [daunorubicin], the “sensitivity to growth and/or survival inhibition” value is on record as “do not exhibit increased sensitivity”. Still for that read-out and setting: with `CCCCC(=O)OCC(=O)[C@]1(O)Cc2c(O)c3c(c(O)c2[C@@H](O[C@H]2C[C@H](NC(=O)C(F)(F)F)[C@H](O)[C@H](C)O2)C1)C(=O)c1c(OC)cccc1C3=O` [valrubicin] the entry was “do not exhibit increased sensitivity”; with `CO[C@@]12[C@H](COC(N)=O)C3=C(C(=O)C(C)=C(N)C3=O)N1C[C@@H]1N[C@@H]12` [mitomycin C], “increased sensitivity”; with `CC[C@@]1(O)C(=O)OCc2c1cc1n(c2=O)Cc2cc3c(CN(C)C)c(O)ccc3nc2-1` [topotecan], “increased sensitivity”. On the same count and under the same terms, with `O=C1c2c(O)ccc(O)c2C(=O)c2c(NCCNCCO)ccc(NCCNCCO)c21` [mitoxantrone] the entry was “do not exhibit increased sensitivity”; with `COS(C)(=O)=O` [methymethanesulfate, methyl methanesulfonate], “increased sensitivity”.

For the origin of these results see patent US20150313922A1, “COMPOSITIONS AND METHODS FOR THE TREATMENT OF CANCERS ASSOCIATED WITH A DEFICIENCY IN THE MRE11/RAD50/NBS1 DNA DAMAGE REPAIR COMPLEX” (SLOAN-KETTERING INSTITUTE FOR CANCER RESEARCH, priority 2012, published 2015).
